≈ marks a conversion by molar mass, not a printed value. Read-outs that look alike come from different tables or passages of the source.
Key:
Type in all cases: cell-based
[1] = tested on: K. pneumoniae (ATCC 700603); assay: MIC by microbroth dilution, K. pneumoniae ATCC 700603; settings: Klebsiella pneumoniae, ATCC700603, Formula I compounds
Method: (§1) Shown below are the microbiological activities of representative compounds of Formula I of the invention. The compounds were tested by the microbroth dilution method (National committee for Clinical Laboratory Standards, 2011, M07-08) and the Minimum Inhibitory Concentration (MIC) was determined.
(§2) Analysis of microbiological activity of compounds shown below are the microbiological activities of representative compounds of Formula II of the invention. The compounds were tested by the microbroth dilution method as per the reference in Example 1.

[2] = tested on: Moraxella catarrhalis (ATCC 8176); assay: MIC by microbroth dilution, Moraxella catarrhalis ATCC 8176; settings: ATCC8176
Method: (§3) Shown below are the microbiological activities of representative compounds of Formula I of the invention. The compounds were tested by the microbroth dilution method (National committee for Clinical Laboratory Standards, 2011, […]-08) and the Minimum Inhibitory Concentration (MIC) was determined.

E. coli (ATCC 25922) = assay: MIC by microbroth dilution, E. coli ATCC 25922; settings: Escherichia coli
Method: as §1, §2

[3] = tested on: Staphylococcus aureus (ATCC 29213); assay: MIC by microbroth dilution, Staphylococcus aureus ATCC 29213; settings: ATCC29213
Method: as §3

[4] = tested on: Enterococcus faecalis (ATCC 29212); assay: MIC by microbroth dilution, Enterococcus faecalis ATCC 29212; settings: ATCC29212
Method: as §3

[5] = tested on: Methicillin resistant Staphylococcus aureus (ATCC 33591); assay: MIC by microbroth dilution, MRSA ATCC 33591
Method: as §1, §2

[6] = tested on: Streptococcus pneumoniae (ATCC 6301); assay: MIC by microbroth dilution, Streptococcus pneumoniae ATCC 6301; settings: ATCC6301
Method: as §3

[7] = ATCC25922, Formula I compounds, read-out: MIC E. coli (ATCC 25922)
[8] = ATCC33591, Formula I compounds, read-out: MIC Methicillin resistant Staphylococcus aureus (ATCC 33591)
[9] = ATCC25922, Formula II compounds, read-out: Minimum Inhibitory Concentration (MIC) E. coli ATCC 25922
[10] = Formula II compounds, read-out: Minimum Inhibitory Concentration (MIC) MRSA ATCC 33591

| MIC (E. coli (ATCC 25922); [9]) | MIC [5, 10] | Compound | MIC [1] | MIC [2] | MIC (E. coli (ATCC 25922); [7]) | MIC [3] | MIC [4] | MIC [5, 8] | MIC [6] |
| --- | --- | --- | --- | --- | --- | --- | --- | --- | --- |
| 2 µg/mL (≈ 4.73 µM) | 0.125 µg/mL (≈ 0.296 µM) | CCc1ccc2ncc(=O)n(CCN3CCC(NCc4ccc(C)c(F)c4)CC3)c2c1 [VT-03-00112] |  |  |  |  |  |  |  |
| 2 µg/mL (≈ 4.3 µM) |  | Cc1ccc(CNC2CCN(CCn3c(=O)cnc4ccc(C(=O)O)cc43)CC2)cc1[N+](=O)[O-] [VT-03-00124] |  |  |  |  |  |  |  |
| 8 µg/mL (≈ 17.1 µM) |  | COc1ccc2ncc(=O)n(CCN3CC[C@H](NCc4ccc(C)c([N+](=O)[O-])c4)[C@@H](O)C3)c2c1 [VT-03-00135] |  |  |  |  |  |  |  |

Second part, the compound before the results:

| Compound | MIC (E. coli (ATCC 25922); [9]) | MIC [5, 10] | MIC [1] | MIC [2] | MIC (E. coli (ATCC 25922); [7]) | MIC [3] | MIC [4] | MIC [5, 8] | MIC [6] |
| --- | --- | --- | --- | --- | --- | --- | --- | --- | --- |
| COc1ccc2ncc(C#N)c(CCN3C4CCC3CC(NCc3cc5c(cn3)OCS5)C4)c2c1 (centres unmarked) [VT-03-00014] |  |  | > 128 µg/mL | 4 µg/mL (≈ 8.2 µM) | 32 µg/mL (≈ 65.6 µM) | 2 µg/mL (≈ 4.1 µM) | 4 µg/mL (≈ 8.2 µM) | 4 µg/mL (≈ 8.2 µM) | 2 µg/mL (≈ 4.1 µM) |
| COc1ccc2ncc(C#N)c(CCN3C4CCC3CC(NS(=O)(=O)c3ccccc3C)C4)c2c1 (centres unmarked) [VT-03-00017] |  |  |  | > 16 µg/mL | > 32 µg/mL | > 32 µg/mL | > 64 µg/mL | > 32 µg/mL | > 16 µg/mL |
| COc1ccc2ncc(C#N)c(CCN3C4CCC3CC(NS(=O)(=O)c3ccc5c(c3)OCCO5)C4)c2c1 (centres unmarked) [VT-03-00021] |  |  | > 32 µg/mL | 2 µg/mL (≈ 3.74 µM) | 16 µg/mL (≈ 29.9 µM) | 0.25 µg/mL (≈ 0.468 µM) | 2 µg/mL (≈ 3.74 µM) | 0.12 µg/mL (≈ 0.224 µM) | 1 µg/mL (≈ 1.87 µM) |
| COc1ccc2ncc(C#N)c(CCN3C4CCC3CC(NCc3ccc5c(c3)OCCO5)C4)c2c1 (centres unmarked) [VT-03-00021a] |  |  |  | 2 µg/mL (≈ 4.13 µM) | 16 µg/mL (≈ 33 µM) | ≤ 0.03 µg/mL | 2 µg/mL (≈ 4.13 µM) | 0.06 µg/mL (≈ 0.124 µM) | 0.12 µg/mL (≈ 0.248 µM) |
| COc1ccc2ncc(C#N)c(CCN3C4CCC3CC(NS(=O)(=O)c3ccc5ccccc5c3)C4)c2c1 (centres unmarked) [VT-03-00022] |  |  |  | 4 µg/mL (≈ 7.6 µM) | > 64 µg/mL | 1 µg/mL (≈ 1.9 µM) | 4 µg/mL (≈ 7.6 µM) | 2 µg/mL (≈ 3.8 µM) | 2 µg/mL (≈ 3.8 µM) |
| COc1ccc2ncc(C#N)c(CCN3C4CCC3CC(NC(=O)c3ccc5c(c3)OCCO5)C4)c2c1 (centres unmarked) [VT-03-00024] |  |  |  | 8 µg/mL (≈ 16 µM) | > 32 µg/mL | 1 µg/mL (≈ 2.01 µM) | 8 µg/mL (≈ 16 µM) | 2 µg/mL (≈ 4.01 µM) | 2 µg/mL (≈ 4.01 µM) |
| COc1ccc2ncc(C#N)c(CCN3C4CCC3CC(NCc3ccc5c(c3)NC(=O)CS5)C4)c2c1 (centres unmarked) [VT-03-00026] |  |  | 64 µg/mL (≈ 125 µM) | 2 µg/mL (≈ 3.89 µM) | 32 µg/mL (≈ 62.3 µM) | 2 µg/mL (≈ 3.89 µM) | 8 µg/mL (≈ 15.6 µM) | 4 µg/mL (≈ 7.79 µM) | 1 µg/mL (≈ 1.95 µM) |
| COc1ccc2ncc(C#N)c(CCN3C4CCC3CC(NCc3ccc5c(c3)NCCS5)C4)c2c1 (centres unmarked) [VT-03-00026a] |  |  |  | 4 µg/mL (≈ 8.01 µM) | 16 µg/mL (≈ 32 µM) | 1 µg/mL (≈ 2 µM) | 8 µg/mL (≈ 16 µM) | 2 µg/mL (≈ 4 µM) | 2 µg/mL (≈ 4 µM) |
| COc1ccc2ncc(C#N)c(CCN3C4CCC3CC(NCc3cc5c(cn3)OCCO5)C4)c2c1 (centres unmarked) [VT-03-00027] |  |  |  | 8 µg/mL (≈ 16.5 µM) | > 32 µg/mL | 2 µg/mL (≈ 4.12 µM) | 4 µg/mL (≈ 8.24 µM) | 4 µg/mL (≈ 8.24 µM) | 2 µg/mL (≈ 4.12 µM) |
| COc1ccc2ncc(C#N)c(CCN3C[C@@H]4C[C@H]3CN4CNc3ccc4c(c3)OCCO4)c2c1 [VT-03-00028] |  |  | > 32 µg/mL | 4 µg/mL (≈ 8.48 µM) | > 32 µg/mL | 0.25 µg/mL (≈ 0.53 µM) | 1 µg/mL (≈ 2.12 µM) | 0.5 µg/mL (≈ 1.06 µM) | 0.25 µg/mL (≈ 0.53 µM) |
| COc1ccc2ncc(C#N)c(CCN3C4CCC3CC(NCc3ccc5c(c3)NC(=O)CO5)C4)c2c1 (centres unmarked) [VT-03-00030] |  |  | > 32 µg/mL | 1 µg/mL (≈ 2.01 µM) | 8 µg/mL (≈ 16.1 µM) | 2 µg/mL (≈ 4.02 µM) | 4 µg/mL (≈ 8.04 µM) | 4 µg/mL (≈ 8.04 µM) | 4 µg/mL (≈ 8.04 µM) |
| COc1ccc2ncc(C#N)c(CCN3C4CCC3CC(NCc3cc5c(cc3F)OCCO5)C4)c2c1 (centres unmarked) [VT-03-00031] |  |  | > 32 µg/mL | 4 µg/mL (≈ 7.96 µM) | 16 µg/mL (≈ 31.8 µM) | 1 µg/mL (≈ 1.99 µM) | 2 µg/mL (≈ 3.98 µM) | 2 µg/mL (≈ 3.98 µM) | 1 µg/mL (≈ 1.99 µM) |
| COc1ccc2c(c1)c(CCN1CCC(NCc3ccc4c(c3)NC(=O)CO4)CC1)c(C#N)c(=O)n2C [VT-03-00042] |  |  |  |  | > 32 µg/mL | > 16 µg/mL |  | > 16 µg/mL |  |
| COc1ccc2c(c1)c(CCN1CCC(NCc3ccc4c(c3)OCCO4)CC1)c(C#N)c(=O)n2C [VT-03-00043] |  |  |  |  | > 32 µg/mL | 16 µg/mL (≈ 32.7 µM) |  | > 16 µg/mL |  |
| COc1ccc2ncc(C#N)c(CCN3CCC(NCc4ccc(O)c(OC)c4)CC3)c2c1 [VT-03-00046] |  |  |  |  | > 32 µg/mL | 16 µg/mL (≈ 35.8 µM) |  | > 16 µg/mL |  |
| COc1ccc2ncc(C#N)c(CCN3CCC(NCc4cc(OC)c(O)c([N+](=O)[O-])c4)CC3)c2c1 [VT-03-00060] |  |  |  | > 32 µg/mL | > 32 µg/mL | > 4 µg/mL |  | > 4 µg/mL |  |
| COc1ccc2ncc(=O)n(CCN3CCC(NCc4ccc([N+](=O)[O-])c(C)c4)CC3)c2c1 [VT-03-00067] |  |  | 32 µg/mL (≈ 70.9 µM) | 2 µg/mL (≈ 4.43 µM) | 16 µg/mL (≈ 35.4 µM) | 0.12 µg/mL (≈ 0.266 µM) |  | 0.5 µg/mL (≈ 1.11 µM) | 0.25 µg/mL (≈ 0.554 µM) |
| COc1ccc2ncc(C#N)c(CCN3[C@@H]4CC[C@H]3CC(NCc3ccc(C)c([N+](=O)[O-])c3)C4)c2c1 (some centres unmarked) [VT-03-00069] |  |  |  |  | > 4 µg/mL | > 4 µg/mL |  | > 4 µg/mL |  |
| COc1ccc2ncc(C#N)c(CCN3[C@@H]4CC[C@H]3CC(NCc3cc5c(c([N+](=O)[O-])c3)OCO5)C4)c2c1 (some centres unmarked) [VT-03-00070] |  |  |  |  | > 4 µg/mL | > 4 µg/mL |  | > 4 µg/mL |  |
| COc1ccc2ncc(C#N)c(CCN3CCC(NCc4cc([N+](=O)[O-])c(C)cc4C)CC3)c2c1 [VT-03-00072] |  |  |  |  | > 4 µg/mL | > 4 µg/mL |  | > 4 µg/mL |  |
| COc1ccc2ncc(C#N)c(CCN3[C@@H]4CC[C@H]3CC(NCc3ccc([N+](=O)[O-])s3)C4)c2c1 (some centres unmarked) [VT-03-00074] |  |  |  | 2 µg/mL (≈ 4.19 µM) | 32 µg/mL (≈ 67 µM) | 1 µg/mL (≈ 2.09 µM) | 8 µg/mL (≈ 16.8 µM) | 2 µg/mL (≈ 4.19 µM) | 2 µg/mL (≈ 4.19 µM) |
| COc1ccc2ncc(C#N)c(CCN3CCC(NCc4ncc([N+](=O)[O-])[nH]4)CC3)c2c1 [VT-03-00078] |  |  |  |  | > 32 µg/mL | > 4 µg/mL |  |  |  |
| COc1ccc2ncc(C#N)c(CCN3CCC(NCc4csc([N+](=O)[O-])n4)CC3)c2c1 [VT-03-00080] |  |  |  | > 4 µg/mL | 32 µg/mL (≈ 70.7 µM) | 0.25 µg/mL (≈ 0.552 µM) | 4 µg/mL (≈ 8.84 µM) | 1 µg/mL (≈ 2.21 µM) | 2 µg/mL (≈ 4.42 µM) |
| COc1ccc2ncc(C#N)c(CCN3CCC(NCc4ccc([N+](=O)[O-])cn4)CC3)c2c1 [VT-03-00081] |  |  |  |  | > 32 µg/mL |  |  | 1 µg/mL (≈ 2.24 µM) |  |
| COc1ccc2ncc(C#N)c(CCN3CCC(NCc4ccc(C)c([N+](=O)[O-])c4)(C(N)=O)CC3)c2c1 [VT-03-00083] |  |  |  |  | 4 µg/mL (≈ 7.96 µM) | 0.06 µg/mL (≈ 0.119 µM) |  | 0.12 µg/mL (≈ 0.239 µM) |  |
| COc1ccc2ncc(C#N)c(CCN3CC(CNCc4ccc(C)c([N+](=O)[O-])c4)C3)c2c1 [VT-03-00084] |  |  |  | 2 µg/mL (≈ 4.49 µM) | 8 µg/mL (≈ 18 µM) | 0.5 µg/mL (≈ 1.12 µM) | 2 µg/mL (≈ 4.49 µM) | 0.5 µg/mL (≈ 1.12 µM) | 0.25 µg/mL (≈ 0.561 µM) |
| COc1ccc2ncc(=O)n(CCN3CCC(NCc4ccc(C)c([N+](=O)[O-])c4)CC3)c2n1 [VT-03-00125] | 32 µg/mL (≈ 70.7 µM) | > 4 µg/mL |  |  |  |  |  |  |  |

From patent US20170197935A1, “INHIBITORS OF DNA GYRASE FOR THE TREATMENT OF BACTERIAL INFECTIONS” (Vitas Pharma Research Private Limited, priority 2012, published 2017)
